Measurements: patent publication US20240383955A1, “MODIFIED ANTIMICROBIAL PEPTIDES” (priority 2021, published 2024)
Values after ≈ are worked out from the molar mass of the structure shown. Where two headings read alike, the source gives them in different places. Peptide text beside a SMILES is read from it.

Tests used:
[1] = test system: Aspergillus fumigatus; experiment: MIC by CLSI M27/M38 methodology; assay type: cell-based; conditions: Table 8
Procedure: (§1) Testing for antifungal activity used half-strength potato dextrose broth for peptides and RPMI for comparator antifungals fluconazole and voriconazole. CLSI M27 and M38 methodologies used for to measure MICs. Minimal Inhibitory Concentration (MIC) is the concentration of the compound, protein, or peptide at which there is no significant growth of the microorganism relative to the growth of the microorganism in growth medium lacking the compound, protein, or peptide.
(§2) […] The concentration range for peptides in potato dextrose broth was 0.06-2 mcg/ml, the concentration range for fluconazole was 0.125-64 mcg/ml, and the concentration range for voriconazole was 0.03-16 mcg/ml. MICs were determined at 24-72 hours.

[2] = test system: Candida auris; experiment: MIC by CLSI M27/M38 methodology; assay type: cell-based; conditions: Table 8
Procedure: as §1, §2

[3] = test system: Fusarium (F. solani); experiment: MIC by CLSI M27/M38 methodology; assay type: cell-based; conditions: Fusarium isolate F4 (F. solani); Table 8
Procedure: as §1, §2

[4] = test system: Fusarium (F. oxysporum); experiment: MIC by CLSI M27/M38 methodology; assay type: cell-based; conditions: Table 8
Procedure: as §1, §2

[5] = test system: Candida albicans; experiment: MIC by CLSI M27/M38 methodology; assay type: cell-based; conditions: Table 8
Procedure: as §1, §2

[6] = test system: B. cinerea; experiment: In vitro antifungal activity (MIC) in SFM culture media, with or without added salts; conditions: B. cinerea
[7] = test system: Coccidioides sp.; assay type: cell-based; conditions: Table 8
[8] = test system: B. cinerea, F. graminearum, F. oxysporum and P. capsici; assay type: cell-based; conditions: in vitro, low cationic conditions; against B. cinerea, F. graminearum, F. oxysporum and P. capsici
[9] = test system: C. parapsilosis; experiment: MIC by CLSI M27/M38 methodology; assay type: cell-based, Candida parapsilosis; conditions: C. parapsilosis isolate ATCC 22019; Table 8
Procedure: as §1, §2

N=C(N)NCCC[C@H](NC(=O)CNC(=O)[C@@H](N)Cc1ccccc1)C(=O)N[C@@H](CS)C(=O)N[C@@H](CCCNC(=N)N)C(=O)NCC(=O)N[C@@H](Cc1ccccc1)C(=O)N[C@@H](CCCNC(=N)N)C(=O)N[C@@H](CCCNC(=N)N)C(=O)N[C@@H](CCCNC(=N)N)C(=O)N[C@@H](CS)C(=O)N[C@@H](Cc1ccccc1)C(=O)N[C@@H](CS)C(=O)N[C@@H](Cc1c[nH]c2ccccc12)C(=O)N[C@@H](CCCNC(=N)N)C(=O)N[C@@H](Cc1c[nH]c2ccccc12)C(=O)N[C@@H](CS)C(N)=O [GMA4C_V4A] (H-FGRCRGFRRRCFCWRWC-NH2; N-terminus assumed)
MIC, 100% ([1]; Aspergillus fumigatus isolate AF293): 16 µg/mL (≈ 6.97 µM) | MIC, 100% ([1]; Aspergillus fumigatus isolate DI15-106): 16 µg/mL (≈ 6.97 µM) | MIC, 100% ([1]; Aspergillus fumigatus isolate DI15-116): 32 µg/mL (≈ 13.9 µM) | MIC, 100% ([2]; Candida auris isolate DI17-46): 8 µg/mL (≈ 3.49 µM) | MIC, 100% ([2]; Candida auris isolate DI17-47): 8 µg/mL (≈ 3.49 µM) | MIC, 100% ([2]; Candida auris isolate DI17-48): 8 µg/mL (≈ 3.49 µM) | MIC, 100% [3]: 8 µg/mL (≈ 3.49 µM) | MIC, 100% ([4]; Fusarium isolate F1 (F. oxysporum)): 8 µg/mL (≈ 3.49 µM) | MIC, 100% ([4]; Fusarium isolate F2 (F. oxysporum)): 8 µg/mL (≈ 3.49 µM) | MIC, 100% ([5]; Candida albicans isolate ATCC 90028): 8 µg/mL (≈ 3.49 µM) | MIC, 100% ([5]; Candida albicans isolate CA3): 8 µg/mL (≈ 3.49 µM) | MIC, 100% ([5]; Candida albicans isolate SC5314): 8 µg/mL (≈ 3.49 µM) | fungal growth inhibition at 6 μM ([6]; in presence of 2 mM CaCl2, peptide 6 μM): inhibit fungal growth | potency of antifungal activity relative to GMA4C_AC ([6]; in presence of 100 mM NaCl or 100 mM KCl): 2 fold | MIC, 100% ([7]; Coccidioides sp. isolate Cocci1): 4 µg/mL (≈ 1.74 µM) | MIC, 100% ([7]; Coccidioides sp. isolate Cocci2): 16 µg/mL (≈ 6.97 µM) | MIC, 100% ([7]; Coccidioides sp. isolate DI17-143): 16 µg/mL (≈ 6.97 µM) | antifungal activity relative to the wild-type GMA4C_AC control [8]: equivalent to the wild-type GMA4C_AC control | MIC, 100% [9]: 8 µg/mL (≈ 3.49 µM)
